Reference: patent US20130116251A1, “Novel HSP90 Inhibitor” (Nippon Kayaku Kabushiki Kaisha, priority 2005, published 2013)
Structures can show the parent of a compound that is named as a salt. Where two headings read alike, the source gives them in different places.

Experiments:
[1] = system: Human breast cancer cells (MCF7); test: Antiproliferative activity on MCF7 cells (methylene blue method); type: cell-based; conditions: MCF7 cells, 72 hours treatment, 660 nm absorbance after methylene blue staining, read-out: Antiproliferative activity IC50
Description: Human breast cancer cells (MCF7) were treated with samples of various concentrations of known HSP90 inhibitors (that is, geldanamycin, herbimycin, radicicol and PU3) and the compounds of the present invention for 72 hours to confirm the effect of the triazole derivatives of the present invention on the cell growth. The cell ratio after the drug treatment was evaluated by measuring 660 nm absorbance by a microplate reader (BioRad) after staining the cells with the methylene blue method.
Cells were distributed to wells of 96 well plates at 2000 cells per well and treated with drugs 24 hours later. Further, the medium was removed 72 hours later and the cells were fixed by adding 50 μl of methanol and standing at room temperature for 2 minutes. After removing methanol, 100 μl of a staining solution was added and stained for 30 minutes. After washing 3 times with 200 μl of distilled water, 3% HCl solution was added, and the 660 nm absorbance of methylene blue was measured by a microplate reader (BioRad).
Next, the antiproliferative activity rate (%) was obtained by the formula (2) below.
Antiproliferative activity rate(%)=((B−A)/B)×100 Formula (2)
wherein B is 660 nm absorbance of the sample when the compound of the present invention is not added, and A is 660 nm absorbance of the sample when the compound of the present invention is added.
From the concentration of the triazole derivative of the present invention and the antiproliferative activity rate, the concentration was obtained using the above formula, at which the cell growth was suppressed by 50% by comparing with the control, and termed an IC50 value.
The antiproliferative activity rate (%) was obtained for SH-b04, SH-b05 and SH-b06 described above by a similar manner to that of the triazole derivatives of the present invention.

rHSP90 = test: HSP90 binding assay (BIACORE SPR; inhibition of binding between rHSP90 and fixed herbimycin A); conditions: concentration inhibiting binding between rHSP90 (50 μg/mL) and fixed herbimycin A by 50%, BIACORE-X SPR; read-out: HSP90 inhibitory activity IC50
Excerpt: The HSP90 binding assay system is a system for detecting the change of mass as SPR signal caused by the binding between herbimycin A fixed on a sensor chip and rHSP90 by BIACORE-X, in which 17-(6-amino hexylamino)herbimycin A is fixed through a carboxyl group on the surface of the sensor chip (CM5, BIACORE) on which carboxymethyldextran has been introduced. The method was according to the protocol of BIACORE. In addition, 17-(6-aminohexylamino)herbimycin A was synthesizes as described below.
rHSP90 (Stressgen Biotechnologies Corp., Victoria, BC Canada) at 50 μg/mL was exposed for 10 seconds to the surface of the sensor chip on which herbimycin A was fixed and the SPR signal (numerical value of interaction) was detected.
After mixing rHSP90 protein (5×10^−7M (50 μg/mL)) with the triazole derivative of the present invention, the mixture was exposed for 10 seconds to the surface of the sensor chip on which herbimycin A was fixed, and the SPR signal was measured by BIACORE-X.
Next, using following formula (1), the inhibitory activity (binding inhibition rate (%)) of the compound of the present invention to the binding between rHSP90 and fixed herbimycin A was obtained.
binding inhibition rate(%)=((b−s)/b)×100 Formula (1)
wherein b is the SPR signal when the compound of the present invention is not added to the sample: s is the SPR signal when the compound of the present invention is added to the sample.

Which IC50 ([1]; Homo sapiens, MCF7, 72 h) does the source give for CC(C)c1cc(-c2nnc(S(C)(=O)=O)n2-c2ccc(C[N+]3([O-])CCOCC3)cc2)c(O)cc1O [SFN-a07, 4-isopropyl-6-{5-methanesulfonyl-4-[4-(morpholin-4-oxid-4-ylmethyl)-phenyl]-4H-[1,2,4]triazol-3-yl}benzene-1,3-diol] here?
The IC50 was 24000 nM.

And the IC50 (rHSP90)?
Its IC50 is 320 nM.

Which results are given for CC(C)c1cc(-c2nnc(S(C)(=O)=O)n2C(C)C)c(O)cc1O [SFN-a21, 4-isopropyl-6-(4-isopropyl-5-methanesulfonyl-4H-[1,2,4]triazol-3-yl)-benzene-1,3-diol]?
IC50 ([1]; Homo sapiens, MCF7, 72 h): 16000 nM; IC50 (rHSP90): 230 nM

What does the source list for CC(C)c1cc(-c2nnc(S(C)(=O)=O)n2CCCN2CCOCC2)c(O)cc1O [SFN-a27, 4-isopropyl-6-[5-methanesulfonyl-4-[3-(molpholin-4-yl)-propyl]-4H-[1,2,4]triazol-3-yl]-benzene-1,3-diol]?
IC50 ([1]; Homo sapiens, MCF7, 72 h): > 20000 nM; IC50 (rHSP90): 1600 nM

What does the source list for CC(C)c1cc(-c2nnc(S(C)(=O)=O)n2CCc2ccc[n+]([O-])c2)c(O)cc1O [SFN-a29, 5-(2,4-dihydroxy-5-isopropylphenyl)-4-[2-(1-oxopyridin-3-yl)ethyl]-3-methanesulfonyl-4H-[1,2,4]triazole]?
IC50 ([1]; Homo sapiens, MCF7, 72 h): > 20000 nM; IC50 (rHSP90): 3600 nM

Which results are given for CC(C)c1cc(-c2nnc(S(C)(=O)=O)n2CCCN2CCCC2=O)c(O)cc1O [SFN-a30]?
IC50 ([1]; Homo sapiens, MCF7, 72 h): > 20000 nM; IC50 (rHSP90): 2400 nM

Which results are given for COCCn1c(-c2cc(C(C)C)c(O)cc2O)nnc1S(C)(=O)=O [SFN-a32, 4-isopropyl-6-[5-methanesulfonyl-4-(2-methoxy-ethyl)-4H-[1,2,4]triazol-3-yl]-benzene-1,3-diol]?
IC50 ([1]; Homo sapiens, MCF7, 72 h): > 20000 nM; IC50 (rHSP90): 1900 nM

How did the IC50 ([1]; Homo sapiens, MCF7, 72 h) turn out when CC(C)c1cc(-c2nnc(S(C)(=O)=O)n2C(CO)CO)c(O)cc1O [SFN-a33, 4-[4-(2-hydroxy-1-hydroxymethyl-ethyl)-5-methanesulfonyl-4H-[1,2,4]triazol-3-yl]-6-isopropyl-benzene-1,3-diol] was run?
Its IC50 is 15000 nM.

What about the IC50 (rHSP90) of the same compound?
The IC50 was 1300 nM.

Which IC50 ([1]; Homo sapiens, MCF7, 72 h) does the source give for CC(C)c1cc(-c2nnc([S+](C)[O-])n2-c2ccc(C[N+]3([O-])CCOCC3)cc2)c(O)cc1O (stereo not shown) [SFX-a07-TF, 4-isopropyl-6-{5-methylsulfinyl-4-[4-(morpholin-4-oxid-4-ylmethyl)-phenyl]-4H-[1,2,4]triazol-3-yl}-benzene-1,3-diol trifluoroacetate] here?
The IC50 was 12000 nM.

And the IC50 (rHSP90)?
The IC50 was 64 nM.

COc1ccc(-n2c(-c3cc(C(C)C)c(O)cc3O)nnc2[S+](C)[O-])cc1 (stereo not shown) [SFX-a08, 4-isopropyl-6-[5-methylsulfinyl-4-(4-methoxy-phenyl)-4H-[1,2,4]triazol-3-yl]-benzene-1,3-diol] was tested. Which IC50 ([1]; Homo sapiens, MCF7, 72 h) did it give?
The IC50 was 360 nM.

And the IC50 (rHSP90)?
The IC50 was 120 nM.

How did the IC50 [1] turn out when CC(C)c1cc(-c2n[nH]c(=S)n2-c2ccc(N3CCOCC3)cc2)c(O)cc1O [SH-a01, 4-isopropyl-6-{5-mercapto-4-[4-(morpholin-4-yl)-phenyl]-4H-[1,2,4]triazol-3-yl}-benzene-1,3-diol] was run?
The IC50 was 14 nM.

And the IC50 (rHSP90)?
Its IC50 is 140 nM.

Which results are given for CC(C)c1cc(-c2n[nH]c(=S)n2-c2ccc(N3CCOCC3)cc2)c(O)cc1O [SH-a01-TF, 4-isopropyl-6-{5-mercapto-4-[4-(morpholin-4-yl)-phenyl]-4H-[1,2,4]triazol-3-yl}-benzene-1,3-diol]?
IC50 ([1]; Homo sapiens, MCF7, 72 h): 20 nM; IC50 (rHSP90): 190 nM

What does the source list for CC(C)c1cc(-c2n[nH]c(=S)n2-c2ccc(Br)cc2)c(O)cc1O [SH-a03, 4-[4-(4-bromo-phenyl)-5-mercapto-4H-[1,2,4]triazol-3-yl]-6-isopropyl-benzene-1,3-diol]?
IC50 ([1]; Homo sapiens, MCF7, 72 h): 150 nM; IC50 (rHSP90): 150 nM

With COc1ccc(-n2c(-c3cc(C(C)C)c(O)cc3O)n[nH]c2=S)cc1 [SH-a08, 5-(2,4-dihydroxy-5-isopropyl-phenyl)-4-(4-methoxy-phenyl)-2,4-dihydro-[1,2,4]-triazol-3-thione] as the compound, how does the IC50 ([1]; Homo sapiens, MCF7, 72 h) read?
The IC50 was 57 nM.

And the IC50 (rHSP90)?
The IC50 was 85 nM.

What does the source list for CC(C)c1cc(-c2n[nH]c(=S)n2-c2ccccc2)c(O)cc1O [SH-a15]?
IC50 ([1]; Homo sapiens, MCF7, 72 h): 40 nM; IC50 (rHSP90): 250 nM

Which results are given for CC(C)c1cc(-c2n[nH]c(=S)n2-c2cccnc2)c(O)cc1O [SH-a16]?
IC50 ([1]; Homo sapiens, MCF7, 72 h): 240 nM; IC50 (rHSP90): 140 nM

Which results are given for CC(C)c1cc(-c2n[nH]c(=S)n2C(C)C)c(O)cc1O [SH-a21, 5-(2,4-dihydroxy-5-isopropyl-phenyl)-4-isopropyl-2,4-dihydro-[1,2,4]-triazol-3-thione]?
IC50 ([1]; Homo sapiens, MCF7, 72 h): 400 nM; IC50 (rHSP90): 220 nM

What does the source list for CC(C)Cn1c(-c2cc(C(C)C)c(O)cc2O)n[nH]c1=S [SH-a22, 5-(2,4-dihydroxy-5-isopropyl-phenyl)-4-isobutyl-2,4-dihydro-[1,2,4]triazol-3-thione]?
IC50 ([1]; Homo sapiens, MCF7, 72 h): 450 nM; IC50 (rHSP90): 270 nM

With CC(C)c1cc(-c2n[nH]c(=S)n2C2CCCCC2)c(O)cc1O [SH-a23, 5-(2,4-dihydroxy-5-isopropyl-phenyl)-4-cyclohexyl-2,4-dihydro-[1,2,4]triazol-3-thione] as the compound, how does the IC50 ([1]; Homo sapiens, MCF7, 72 h) read?
The IC50 was 330 nM.

What about the IC50 (rHSP90) of the same compound?
The IC50 was 420 nM.

Which IC50 ([1]; Homo sapiens, MCF7, 72 h) does the source give for CC(C)c1cc(-c2n[nH]c(=S)n2C2CCN(Cc3ccccc3)CC2)c(O)cc1O [SH-a25•TFA] here?
Its IC50 is 890 nM.

And the IC50 (rHSP90)?
The IC50 was 1000 nM.

CC(C)c1cc(-c2n[nH]c(=S)n2CCc2cccnc2)c(O)cc1O [SH-a28, 5-(2,4-dihydroxy-5-isopropylphenyl)-4-(2-pyridin-3-ylethyl)-2,4-dihydro-[1,2,4]triazol-4-thione] was tested. Which IC50 ([1]; Homo sapiens, MCF7, 72 h) did it give?
The IC50 was 7200 nM.

What about the IC50 (rHSP90) of the same compound?
The IC50 was 430 nM.

Which results are given for CC(C)c1cc(-c2n[nH]c(=S)n2CC2CCCO2)c(O)cc1O (stereo not shown) [SH-a31, 5-(2,4-dihydroxy-5-isopropylphenyl)-4-(tetrahydrofuran-2-ylmethyl)-2,4-dihydro-[1,2,4]triazol-3-thione]?
IC50 ([1]; Homo sapiens, MCF7, 72 h): 550 nM; IC50 (rHSP90): 310 nM

COCCn1c(-c2cc(C(C)C)c(O)cc2O)n[nH]c1=S [SH-a32, 5-(2,4-dihydroxy-5-isopropyl-phenyl)-4-(2-methoxy-ethyl)-2,4-dihydro-[1,2,4]triazol-3-thione] was tested. Which IC50 ([1]; Homo sapiens, MCF7, 72 h) did it give?
The IC50 was 550 nM.

And the IC50 (rHSP90)?
The IC50 was 240 nM.

Oc1ccc(-c2nnc(S)n2-c2ccccc2)c(O)c1 [SH-b04, reference compound] was tested. Which IC50 ([1]; Homo sapiens, MCF7, 72 h) did it give?
The IC50 was 5700 nM.

What about the IC50 (rHSP90) of the same compound?
The IC50 was 170 nM.

With Cc1ccccc1-n1c(S)nnc1-c1ccc(O)cc1O [SH-b05, reference compound] as the compound, how does the IC50 ([1]; Homo sapiens, MCF7, 72 h) read?
Its IC50 is 9000 nM.

What about the IC50 (rHSP90) of the same compound?
Its IC50 is 200 nM.

COc1ccc(OC)c(-n2c(S)nnc2-c2ccc(O)cc2O)c1 [SH-b06, reference compound] was tested. Which IC50 ([1]; Homo sapiens, MCF7, 72 h) did it give?
The IC50 was 77000 nM.

What about the IC50 (rHSP90) of the same compound?
The IC50 was 690 nM.

For CC#CCc1cc(-c2n[nH]c(=S)n2-c2ccc(CN3CCOCC3)cc2)c(O)cc1O [SH-c02-TF, 4-(but-2-ynyl)-6-{5-mercapto-4-[4-morpholin-4-ylmethyl]-phenyl}-4H-[1,2,4]trioazol-3-yl]-benzene-1,3-diol trifluoroacetate], which IC50 ([1]; Homo sapiens, MCF7, 72 h) is on record?
Its IC50 is 480 nM.

What about the IC50 (rHSP90) of the same compound?
The IC50 was 250 nM.

With COc1ccc(-n2c(-c3cc(C(C)(C)C)c(O)cc3O)n[nH]c2=S)cc1 [SH-f08] as the compound, how does the IC50 ([1]; Homo sapiens, MCF7, 72 h) read?
The IC50 was 3000 nM.

And the IC50 (rHSP90)?
The IC50 was 560 nM.

How did the IC50 ([1]; Homo sapiens, MCF7, 72 h) turn out when CSc1nnc(-c2cc(C(C)C)c(O)cc2O)n1-c1ccc(CN2CCOCC2)cc1 [SMe-a02-TF, 4-isopropyl-6-{5-methylsulfanyl-4-[4-(morpholin-4-ylmethyl)-phenyl]-4H-[1,2,4]triazol-3-yl}-benzene-1,3-diol trifluoroacetate] was run?
Its IC50 is 530 nM.

What about the IC50 (rHSP90) of the same compound?
The IC50 was 470 nM.

What does the source list for COc1ccc(-n2c(SCCN(C)C)nnc2-c2cc(C(C)C)c(O)cc2O)cc1 [SR2-a08, 4-[5-(3-dimethylamino-ethylsulfanyl)-4-(4-methoxy-phenyl)-4H-[1,2,4]triazol-3-yl]-6-isopropyl-benzene-1,3-diol]?
IC50 ([1]; Homo sapiens, MCF7, 72 h): 1800 nM; IC50 (rHSP90): 740 nM
